Test [1] concerns HSP72 induction (product of HSF1 transcriptional activity) in SK-OV-3 cells. The test is described as follows: Cell-based ELISA (Cellisa) for HSP72 expression after 17-AAG. Set-up: species or system human. The note with it: SK-OV-3 ovarian cancer cell line; summary of Table 1.
Protocol: Prior to use, the cells were analyzed by short tandem repeat (STR) profiling. Polymorphic STR loci were amplified using a polymerase chain reaction (PCR) primer set. The PCR product (each locus being labelled with a different fluorophore) was analyzed simultaneously with size standards using automated fluorescent detection. The number of repeats at 10 different loci (as recommended by the American Type Culture Collection, ATCC) was used to define the STR profile and this was cross-referenced with online databases to confirm authenticity. […] The cells were free of mycoplasma contamination as determined by a sensitive nested PCR protocol (Venor GeM kit, Minerva Biolabs, Germany). Cells were grown in DMEM/10% FCS, 2 mM glutamine and nonessential amino acids in 5% CO2.
Cell-Based ELISA (Cellisa) for HSP72 Expression
To follow HSP72 protein expression, a product of HSF1 transcriptional activity, the Cellisa was developed. […] The medium was removed and cells were fixed with fixing solution (4% paraformaldehyde, 0.3% TritonX-100 in PBS buffer) for 30 min at 4° C. The plates were then washed with 0.1% Tween-20/deionized water, before blocking with 5% milk for 30 mins at 37° C. […] Following 4× washes, the plates were incubated with europium-labelled anti-mouse antibody (0.6 μg/mL) in Delfia assay buffer (Perkin Elmer) for 1 h at 37° C. […]
Test [2] has as its system SK-OV-3 ovarian cancer cell line. Kind of test: cells. It counts as cell-based. Conditions: Homo sapiens, SK-OV-3, 96 h, read-out: SK-OV-3 pGI50 ± SEM (n) (converted).
Protocol: Cells were grown in DMEM/10% FCS, 2 mM glutamine and nonessential amino acids in 5% CO2.
In Vitro Cell Viability Assay
The cell titer blue viability (CTB) (Promega) assay provides a homogenous, fluorometric method for estimating the number of viable cells. It uses the dark blue indicator dye resazurin to measure the metabolic capacity of cells which is an indicator of cell viability. Viable cells are able to reduce resazurin into resorufin (pink), which is highly fluorescent. […] Compounds (at a range of concentrations) were added using the ECHO 550 liquid handler (Labcyte, USA) and then left at 37° C. for 96 h. Titre blue reagent was added to each well and left at 37° C. for 3-4 h. Fluorescence was measured using the Envision machine (Perkin Elmer, UK). The 50% growth inhibitory concentration (GI50) was determined by fitting the data to a dose-response curve without limits using non-linear regression. Each concentration was tested twice.

In the case of `[2H]C([2H])([2H])C([2H])([2H])N1CCN(Cc2ccc3cc(C(=O)Nc4cc(NC(=O)c5ccc6c(c5)OCCO6)ccc4F)ccc3n2)CC1` [Compound A, N-(5-(2,3-Dihydrobenzo[b][1,4]dioxine-6-carboxamido)-2-fluorophenyl)-2-((4-ethyl-d5-piperazin-1-yl)methyl)quinoline-6-carboxamide], the “cellular activity (in words)” value in test [1] is given as “potent cellular activity”.

For the compound `[2H]C1([2H])N(CC)C([2H])([2H])C([2H])([2H])N(Cc2ccc3cc(C(=O)Nc4cc(NC(=O)c5ccc6c(c5)OCCO6)ccc4F)ccc3n2)C1([2H])[2H]` [Compound B, N-(5-(2,3-Dihydrobenzo[b][1,4]dioxine-6-carboxamido)-2-fluorophenyl)-2-((4-ethyl-piperazin-d8-1-yl)methyl)quinoline-6-carboxamide], the GI50 in test [2] was 18.2 nM.

For `[2H]C1([2H])Oc2ccc(C(=O)Nc3ccc(F)c(NC(=O)c4ccc5nc(CN6CCN(CC)CC6)ccc5c4)c3)cc2OC1([2H])[2H]` [Compound C, N-(5-(2,3-Dihydrobenzo-d4-[b][1,4]dioxine-6-carboxamido)-2-fluorophenyl)-2-((4-ethylpiperazin-1-yl)methyl)quinoline-6-carboxamide], the GI50 in test [2] is 11.5 nM.

For the origin of these results see patent publication US11814370B2, “Deuterated N-(5-(2,3-dihydrobenzo[b][1,4]dioxine-6-carboxamido)-2-fluorophenyl)-2-((4-ethylpiperazin-1-yl)methyl)quinoline-6-carboxamide” (priority 2016, dated 2023).
